Data on 14 molecules can be found in patent publication US11492359B2, “Near-infrared nerve-sparing fluorophores” (OREGON HEALTH & SCIENCE UNIVERSITY, priority 2018, dated 2022).

Series [1] has as its system murine brachial plexus and sciatic nerves. The series is described as follows: Nerve-specificity screening using systemic administration. The format is in vivo. To be noted: IV; for nerve specificity / nerve contrast (N/M vs control group) following systemic administration: 200 nmol, 4 hours prior to imaging; for toxicity upon systemic administration: mice.
Series [2] has the same test system. The series is described as follows: Nerve-specificity screening using direct/topical administration. As to conditions: 125 μM, imaged 30 minutes after staining. The format is in vivo, mouse. The protocol: (§1) All reagents were purchased from Sigma Aldrich, Fisher Scientific, TCI, or Ark Pharm. Unless otherwise indicated, all commercially available starting materials were used directly without further purification. Analytical thin layer chromatography (TLC) was performed on Millipore ready-to-use plates with silica gel 60 (F254, 32-63 μm). Flash chromatography was performed on Sorbent Technologies silica gel for column chromatography or on a Biotage Isolera Flash System using SNAP Ultra cartridges. High-resolution mass spectra (HRMS) were measured on a ThermoElectron LTQ-Orbitrap high resolution mass spectrometer with a dedicated Accela HPLC system, or an Agilent 6244 time-of-flight LCMS with diode array detector VL+. LCMS and Purity Characterization Mass-to-charge ratio and purity of the Oxazine compounds were characterized on an Agilent 6244 time-of-flight tandem liquid chromatography mass spectroscopy (LCMS) with diode array detector VL+. Sample (10 μL) was injected into a C18 column (Poroshell 120, 4.6×50 mm, 2.7 micron), and eluted with a solvent system of A (H2O, 0.1% FA) and B (MeCN, 01.% FA) at 0.4 mL/min, from A/B=90/10 to 5/95 over 10 min, maintained at A/B=5/95 for additional 5 min. Ions were detected in positive ion mode by setting the capillary voltage at 4 kV and gas temperature at 350° C. Purity was calculated through area under the curve analysis of the absorbance at 254 nm. UV-Vis Absorption and Fluorescence Spectroscopy. UV-Vis spectra were collected with a Cary 50 UV-Vis spectrophotometer at room temperature, using a 1-cm quartz cuvette. Fluorescence spectra were collected on a Cary Eclipse fluorescence spectrophotometer (Agilent Technologies). All absorbance spectra were reference corrected. Extinction coefficient was calculated from Beer's Law plots of absorbance versus concentration. Fluorescence spectra were corrected for the wavelength dependent response of the R928 photomultiplier tube using a manufacturer generated correction file. Relative quantum yields are reported as the average of multiple measurements using multiple references, including Oxazine 1, Oxazine 170, and Rhodamine 101. Physicochemical Property Calculation. Physicochemical partition coefficients (Log D) values at pH 7.4, number of hydrogen bond donors and acceptors, polar surface area, and the number of rotatable bonds were calculated using Marvin and JChem calculator plugins (ChemAxon, Budapest, Hungary). Nerve-Specificity Screening using Direct/Topical Administration Each compound was screened for its tissue-specificity using a previously published direct/topical administration strategy in murine brachial plexus and sciatic nerves.^1 Each compound from the Oxazine library was formulated in the previously utilized co-solvent formulation (10% DMSO, 5% Kolliphor, 65% serum and 20% phosphate buffered saline) at 125 μM. 100 μL of the formulated Oxazine were incubated on the exposed brachial plexus or sciatic nerve for 5 minutes. The fluorophore containing solution was removed and the area was irrigated with saline 18 times to remove any unbound fluorophore. Co-registered fluorescence and color images were collected of each stained area 30 minutes after Oxazine direct/topical administration using a custom built macroscopic imaging system with 620/60 nm excitation and 700/75 nm bandpass emission filters. Custom written MatLab code was used to analyze the tissue specific fluorescence where regions of interest were selected on the nerve, muscle and adipose tissue using the white light images. These regions of interest were then analyzed on the co-registered matched fluorescence images permitting assessment of the nerve to muscle and nerve to adipose ratios in blinded manner. […]

The nature of series [3]: UV-Vis absorption and fluorescence spectroscopy of the Oxazine library. The format is physicochemical. To be noted: for Extinction coefficient: Beer's Law plots; for Quantum yield: relative, references Oxazine 1, Oxazine 170, Rhodamine 101. The protocol:
as §1

As for `CC/N=c1\ccc2nc3ccc(NCC)cc3oc-2c1` [LGW01-21, (E)-N-(7-(ethylamino)-3H-phenoxazin-3-ylidene)ethanaminium], the “nerve specificity / nerve contrast (N/M vs control group) following systemic administration” value in series [1] is “negative for nerve contrast”. Also, the “nerve specificity (N/M contrast vs control group) via direct administration” value in series [2] is “positive nerve specificity”. Also, in series [3], the “Max Abs” value stood at 617 nm, the “Max Em” value was 634 nm, the “Max Ex” value is listed as 620 nm and the Extinction coefficient amounted to 28745 M⁻¹ cm⁻¹. The Quantum yield in series [3] came to 30.12%.
On to `CC/N=c1/cc2oc3cc(N(CC)CC)c(C)cc3nc-2cc1C` [LGW01-23, (Z)—N-(7-(diethylamino)-2,8-dimethyl-3H-phenoxazin-3-ylidene)ethanaminium], for which the “nerve specificity / nerve contrast (N/M vs control group) following systemic administration” value in series [1] was “negative for nerve contrast”. Besides, the “nerve specificity (N/M contrast vs control group) via direct administration” value in series [2] is reported as “positive nerve specificity”. For the same molecule, in series [3], the “Max Abs” value was 645 nm, the “Max Em” value amounted to 635 nm, the “Max Ex” value is listed as 620 nm and the Extinction coefficient was found to be 62445 M⁻¹ cm⁻¹. In series [3], this molecule showed a Quantum yield of 0.67%.
For `CCC/N=c1/cc2oc3cc(NCCC)c(C)cc3nc-2cc1C` [LGW01-64, (Z)—N-(2,8-dimethyl-7-(propylamino)-3H-phenoxazin-3-ylidene)propan-1-aminium], in series [1], the “nerve specificity / nerve contrast (N/M vs control group) following systemic administration” value is given as “negative for nerve contrast” and the “toxicity upon systemic administration” value is “toxic upon systemic administration”. Besides, the “nerve specificity (N/M contrast vs control group) via direct administration” value in series [2] is recorded as “positive nerve specificity”. Moreover, in series [3], the “Max Abs” value is recorded as 620 nm, the “Max Em” value was found to be 638 nm, the “Max Ex” value came out at 620 nm and the Extinction coefficient is 50166 M⁻¹ cm⁻¹. Moreover, the Quantum yield in series [3] turned out to be 42.15%.
As to `CC/N=c1/cc2oc3c4c5c(cc3nc-2cc1C)CCCN5CCC4` [LGW01-99, (Z)—N-(11-methyl-2,3,6,7-tetrahydro-1H,5H,12H-quinolizino[1,9-bc]phenoxazin-12-ylidene)ethanaminium], in series [1], the “toxicity upon systemic administration” value is on record as “toxic upon systemic administration”. In series [3], the “Max Abs” value is 648 nm, the “Max Em” value is reported as 667 nm, the “Max Ex” value was 650 nm and the Extinction coefficient worked out at 56046 M⁻¹ cm⁻¹. In series [3], the Quantum yield came out at 10.14%.
For the molecule `CC/N=c1/cc2oc3cc(NCC)cc(C)c3nc-2c(C)c1` [LGW02-95, (E)-N-(7-(ethylamino)-1,9-dimethyl-3H-phenoxazin-3-ylidene)ethanaminium], in series [1], the “nerve specificity / nerve contrast (N/M vs control group) following systemic administration” value is on record as “negative for nerve contrast”. Besides, the “nerve specificity (N/M contrast vs control group) via direct administration” value in series [2] is listed as “positive nerve specificity”. In series [3], the “Max Abs” value is on record as 606 nm, the “Max Em” value came out at 627 nm, the “Max Ex” value was found to be 605 nm and the Extinction coefficient was 48653 M⁻¹ cm⁻¹. Moreover, the Quantum yield in series [3] came to 32.50%.
On to `CC1=CC(C)(C)Nc2cc3c(cc21)N=c1cc2c(cc1O3)=NC(C)(C)C=C2C` [LGW03-01, 2,2,4,8,10,10-hexamethyl-10,11-dihydro-2H-dipyrido[3,2-b:2′,3′-i]phenoxazin-1-ium], for which the “nerve specificity / nerve contrast (N/M vs control group) following systemic administration” value in series [1] is “negative for nerve contrast”. In series [2], the “nerve specificity (N/M contrast vs control group) via direct administration” value is on record as “positive nerve specificity”. In series [3], the “Max Abs” value is reported as 677 nm, the “Max Em” value is recorded as 695 nm, the “Max Ex” value is on record as 680 nm and the Extinction coefficient came out at 44453 M⁻¹ cm⁻¹. In series [3], this molecule displayed a Quantum yield of 17.27%.
Take `CC[N+](CC)=c1ccc2nc3ccc(N4CCCC4)cc3oc-2c1` [LGW03-07, N-ethyl-N-(7-(pyrrolidin-1-yl)-3H-phenoxazin-3-ylidene)ethanaminium]: the “nerve specificity / nerve contrast (N/M vs control group) following systemic administration” value in series [1] was “positive”. Besides, the “nerve specificity (N/M contrast vs control group) via direct administration” value in series [2] is reported as “negative nerve specificity”. In series [3], the “Max Abs” value worked out at 654 nm, the “Max Em” value is on record as 672 nm, the “Max Ex” value is given as 660 nm and the Extinction coefficient was found to be 52356 M⁻¹ cm⁻¹. The Quantum yield in series [3] worked out at 9.28%.
In the case of `CCN(CC)c1cc2oc3cc(=[N+](CC)CC)ccc-3nc2cc1C` [LGW03-23, N-(7-(diethylamino)-8-methyl-3H-phenoxazin-3-ylidene)-N-ethylethanaminium], the “nerve specificity / nerve contrast (N/M vs control group) following systemic administration” value in series [1] is recorded as “negative for nerve contrast”. The “nerve specificity (N/M contrast vs control group) via direct administration” value in series [2] is on record as “positive nerve specificity”. In addition, in series [3], the “Max Abs” value is 664 nm, the “Max Em” value stood at 690 nm, the “Max Ex” value is reported as 645 nm and the Extinction coefficient was found to be 23099 M⁻¹ cm⁻¹. The Quantum yield in series [3] is listed as 1.53%.
As to `CC[N+](CC)=c1ccc2nc3cc4c(cc3oc-2c1)NCCO4` [LGW03-37, N-(3,4-dihydro-[1,4]oxazino[2,3-b]phenoxazin-8(2H)-ylidene)-N-ethylethanaminium], the “nerve specificity / nerve contrast (N/M vs control group) following systemic administration” value in series [1] is listed as “negative for nerve contrast”. For the same molecule, the “nerve specificity (N/M contrast vs control group) via direct administration” value in series [2] is given as “positive nerve specificity”. Moreover, in series [3], the “Max Abs” value was 646 nm, the “Max Em” value worked out at 670 nm, the “Max Ex” value came out at 650 nm and the Extinction coefficient stood at 48849 M⁻¹ cm⁻¹. Further, in series [3], the Quantum yield is given as 4.34%.
Turning to `CC/N=c1/cc2oc3cc4c(cc3nc-2cc1C)C(C)=CC(C)(C)N4CC` [LGW03-57, (Z)—N-(1-ethyl-2,2,4,8-tetramethyl-1,2-dihydro-9H-pyrido[3,2-b]phenoxazin-9-ylidene)ethanaminium], the “nerve specificity / nerve contrast (N/M vs control group) following systemic administration” value in series [1] is given as “negative for nerve contrast”. Also, the “nerve specificity (N/M contrast vs control group) via direct administration” value in series [2] was “positive nerve specificity”. In series [3], the “Max Abs” value was 661 nm, the “Max Em” value came out at 680 nm, the “Max Ex” value is recorded as 665 nm and the Extinction coefficient turned out to be 54072 M⁻¹ cm⁻¹. The molecule also came in with a Quantum yield in series [3] of 18.17%.
As to `CCN1CCc2cc3c(cc21)Oc1cc2c(cc1=N3)CC[N+]=2CC` [LGW07-59, 1,9-diethyl-2,3,7,8-tetrahydro-1H-dipyrrolo[3,2-b:2′,3′-i]phenoxazin-9-ium], in series [3], the “Max Abs” value was 649 nm, the “Max Em” value worked out at 665 nm, the “Max Ex” value turned out to be 655 nm and the Extinction coefficient came out at 51130 M⁻¹ cm⁻¹. Besides, in series [3], the Quantum yield is recorded as 32.17%.
In the same order, the values of `CCN(CC)c1ccc2nc3ccc(=[N+](CC)CC)cc-3oc2c1.[O-][Cl+3]([O-])([O-])[O-]` [OX-1, reference compound] are 655 nm, 671 nm, 660 nm, 93211 M⁻¹ cm⁻¹ and 7.40%.
On to “(Z)—N-(7-(dimethylamino)-2-methyl-3H-phenoxazin-3-ylidene)ethanaminium [LGW04-84]”, for which, in series [3], the “Max Abs” value is given as 637 nm, the “Max Em” value turned out to be 658 nm, the “Max Ex” value turned out to be 640 nm and the Extinction coefficient stood at 50981 M⁻¹ cm⁻¹. The Quantum yield in series [3] turned out to be 3.95%.
In the same order, the values of “N-ethyl-N-(2,2,4,8-tetramethyl-1,2-dihydro-9H-pyrido[3,2-b]phenoxazin-9-ylidene)ethanaminium [LGW01-56]” are 664 nm, 684 nm, 670 nm, 38832 M⁻¹ cm⁻¹ and 11.68%.
